This is an account of results in US20080261902A1, “Pharmaceutical composition containing polydatin and its application” (Shenzhen Neptunus Pharmaceutical Co., Ltd., priority 2005, published 2008).

The subject of the assay is dogs in hemorrhagic shock. The assay is described as follows: Treatment effect of polydatin drug compositions to dogs in hemorrhagic shock (Embodiment 20). Format: in vivo, Beagle dogs.

As for `NCCc1ccc(O)c(O)c1` [dopamine], the “average survival time (hour, x ± s)” value (3.0 mg/kg, continuous intravenous infusion 120 min, long-term survival calculated with 168 hours) is 103.00 ± 89.01 h. In addition, the survival rate amounted to 3 number/5 (24 hours, 3.0 mg/kg); 3 number/5 (48 hours, 3.0 mg/kg); 3 number/5 (72 hours, 3.0 mg/kg). The “pulse pressure difference (FIG. 2)” value (dogs in hemorrhagic shock, during and after infusion) is reported as “increasing range is obviously lower than the polydatin groups”.
